Entries after “also recorded” stand apart in the source; their conditions may differ.
Columns and labels:
[1] = fs-TRLS observation of DET reaction with a weakly-bound electron; settings: pump 350 nm, probe 400 nm; for DET reaction with weakly-bound electron ewb−: identical conditions
From the text: Femtosecond (fs) time-resolved laser spectroscopy (fs-TRLS) is the most versatile and powerful technique for real-time observation of molecular reactions. It uses laser flashes of such short duration that we are down to the time scale on which the reactions actually happen—femtoseconds (fs) (1 fs=10^−15 seconds). […] For the latter, briefly our fs laser amplifier system (Spectra-Physics, Spitfire) produced laser pulses with a pulse width of 100-120 fs at a repetition rate of 500 Hz. A intense pump pulse at 350 nm was used to generate a weakly-bound electron (ewb^−) by 2-photon excitation of a H2O molecule into a higher energy state H2O* that then ionizes to produce an ewb^−; a probe pulse at 400 nm coming at certain delay was used to monitor the DET reaction with the electron by detecting transient absorbance of the reaction intermediate anion state.

[2] = system: human cervical cancer (HeLa) cells; assay: MTT cell viability, HeLa; type: cell-based; settings: 96-hr treatment
[3] = system: human cervical cancer (ME-180) cells; assay: MTT cell viability, ME-180; type: cell-based; settings: ME-180, 96-hr treatment
Protocol: (§1) The complete growth media for ME-180, NIH:OVCAR-3, A549 and MDA-MB-231 cells were the ATCC-formulated McCoy's 5A Medium supplemented with 10% FBS, RPMI 1640 medium with 20%, F-12K medium with 10% FBS, and L-15 Medium (Leibovitz) with 10% FBS, respectively.
(§2) The MTT assay of cell viability was then conducted.

[4] = system: human breast cancer (MDA-MB-231) cells; assay: MTT cell viability, MDA-MB-231; type: cell-based; settings: MDA-MB-231, 96-hr treatment
Protocol: as §1, §2

[5] = system: human lung cancer (A549) cells; assay: MTT cell viability, A549; type: cell-based
Protocol: as §1, §2

[6] = system: cisplatin-resistant human ovarian cancer (NIH:OVCAR-3, HTB-161) cells; assay: MTT cell viability, HTB-161; type: cell-based; settings: HTB-161, 96-hr treatment
Protocol: as §1, §2

[7] = system: human normal cells (GM05757); assay: MTT cell viability, human normal cells (toxicity); settings: for toxicity to human normal cells (cell survival rate): GM05757, 96-hr treatment, up to 200 μM
Protocol: A human skin diploid fibroblast (GM05757 cell line) was obtained from the Coriell Cell Repository directly. Fetal bovine serum (FBS) was obtained from Hyclone Laboratories (UT, USA). The GM05757 normal cells were cultivated with MEM (Hyclone) supplemented with 10% FBS, 100 units/mL penicillin G and 100 μg/mL streptomycin (Hyclone). The cells were maintained at 37° C. in a humidified atmosphere containing 5% CO2.
The toxic effects of NPBs on cell viability were determined by the 3-[4,5-dimethylthiazol-2-yl]-2,5-diphenyl tetrazoliumbromide (MTT) assay. Cells were cultured in 96-well plates (5×10^3 cells/well) for 24 h. The culture medium was replaced by fresh culture medium and incubated for 72 or 96 h with varying drug concentrations. The MTT assay of cell viability was then conducted. Briefly, 100 μl new medium without phenol red containing 1.2 mM MTT (sigma) (i.e., adding 10 μl 12 mM MTT stock solution in PBS) were added to each well and incubated for 4 h. The medium was then removed, and the formazan crystals solubilized by 100 μL/well DMSO (or alternatively by 100 μl/well SDS and incubated for another 4 h). The surviving fraction was determined by measuring the absorbance at 540 nm (570 nm for SDS solubilization) using a Multiskan Spectrum UV/Vis microplate reader (Thermo Scientific), which is directly proportional to the number of viable cells.

[8] = system: human cervical cancer (ME-180) cells; assay: γH2AX DNA damage assay (DNA double-strand breaks); type: cell-based; settings: ME-180, 12 h treatment
Protocol: The γH2AX DNA damage assay (Invitrogen) was used to detect DSBs of genomic DNA in cancer cells. The phosphorylated H2AX foci are a biomarker of DNA DSB. DNA DSBs are measured by specific antibody-based detection of phosphorylated H2AX (γH2AX) in the nucleus. Briefly, the human cervical cancer (ME-180) cells were treated with different concentrations of compound B for 12 h under the cell culture conditions described above. Then following the detailed experimental procedures described in the Protocol provided by the manufacturer, we performed the HCS DNA Damage Assay of the treated cells. The images of cells were acquired with a Nikon Eclipse TS100 fluorescence microscope; quantitative analyses of activated γ-H2AX (DNA DBS yield) in the cells were performed using an Image J software.

[9] = system: human cervical cancer (ME-180) cells; assay: CellEvent Caspase-3/7 apoptosis assay by fluorescence microscopy; type: cell-based; settings: 48 h
From the text: Human cervical cancer (ME-180) cells were purchased from the American Type Culture Collection (ATCC).
The CellEvent™ Caspase-3/7 Green Detection Kit (Invitrogen) was used for the detection of activated caspases and apoptotic cells following the vendor's protocol. This kit provides a […] specific for caspase-3 and -7; the cells show green fluorescence for activated caspase-3 and -7. The reagent consists of a four amino acid peptide (DEVD) conjugated to a nucleic acid binding dye. This cell-permeant substrate is intrinsically non-fluorescent, because the DEVD peptide inhibits the ability of the dye to bind to DNA. After activation of caspase-3 or caspase-7 in apoptotic cells, the DEVD peptide is cleaved, enabling the dye to bind to DNA and produce green fluorescence. Briefly, to use the CellEvent™ Caspase-3/7 Green Detection Reagent, add the substrate to the cells in complete growth medium, incubate for 30 minutes, and image. […] Because the cleaved reagent labels nuclei of caspase 3/7-positive cells, this stain can also provide information on nuclear morphology, including condensed nuclei typical of late-stage apoptosis. ME-180 cells were grown to 60% confluence and then treated with 0-200 μM compound B for 48 h. The fluorescence was detected with a Nikon Eclipse TS100 microscope. Images were captured with an attached camera.

[10] = system: human cervical cancer (ME-180) tumor; assay: Xenograft mouse model of human cervical cancer (ME-180); type: in vivo, SCID mice; settings: 7 mg/kg daily for 5 days, IP
Protocol: The two groups in the experiment were: (1) control article (5% EtOH/medium); (2) Compound B at 7 mg/kg in 5% EtOH/medium daily for 5 days, as shown in Table 1.
(§3) 6-8 week SCID mice were used in this study; Compound B as an exemplary NPB was dissolved in 5% EtOH: 95% cell culture medium (≈1:20).
ME-180 (human cervical cancer) cells were cultured in the ATCC-formulated McCoy's 5A Medium supplemented with 10% FBS. […] The cells were rinsed with PBS, trypsined for detachment from the bottom of the flask, mixed with fresh growth medium, and centrifuged to remove the supernatant. The cells were re-suspend with fresh medium to appropriate concentration for s.c. injection into the mice. Injection volume was 50 μl (1.5×10^6 cells) per animal.
ME-180 tumour cells were subcutaneously into female SCID mice (age 6-8 weeks) in a volume of 50 μL into the left flank using a 27-gauge needle. This was established as a subcutaneous (SC) xenograft mouse model of human cervical cancer.
Mice were individually weighed and injected intraperitoneally according to body weight for an injection concentration as outlined in the study group table above. The injection volume was based on 200 μL per 20 g mouse. The skin surface was wiped down with 70% isopropyl alcohol to clean the injection site.
Tumor size was measured as a function of time to assess tumor growth delay associated with treatment using slide caliper. […]

[11] = In vivo toxicity in SCID mice
Protocol: The two groups (five 6-8 week SCID mice/group) in the experiment were: (1) control article (in 5% EtOH/medium); and (2) Compound B 7 mg/kg in 5% EtOH/medium, as shown in Table 2. Compound B was injected IP every day for 5 days.
as §3
6-8 week SCID Mice were individually weighed and injected intraperitoneally (IP) according to body weight for an injection concentration as outlined in the study group table above. Compound B was administered by IP injection into mice at 0, and 7 mg/kg daily for 5 days. The injection volume was based on 200 μL per 20 g mouse. The skin surface was wiped down with 70% isopropyl alcohol to clean the injection site.
The overall drug toxicity in mice was observed by a survival assay and body weight measurements, and the acute drug toxicity was measured by blood collection and histology. The hepatotoxicity (ALT, ALP, total bilirubin), nephrotoxicity (blood urea, creatinine), and electrolytes (Na, K, Cl) were analyzed by biochemical methods or HPLC-mass spectroscopy. […] Blood samples were collected from the saphenous vein at various time points after drug injection. At the end of the study, whole organs were harvested in order to assess liver, and kidney toxicity.
All animals were observed post administration, and at least once a day, more if deemed necessary, during the pre-treatment and treatment periods for mortality and morbidity. In particular, animals were monitored for signs of ill health such as body weight loss, change in appetite, behavior changes such as altered gait, lethargy and gross manifestations of stress.

[12] = mouse, in vivo, ip, 7 mg/kg/day

| Compound | DET reaction with weakly-bound electron ewb− [1] | cell survival rate (killing of cancer cells) [2] | cell survival rate (killing of cancer cells) [3] | cell survival rate (killing of cancer cells) [4] | cell survival rate (killing of cancer cells) ([5]; A549, 96 hr treatment) | cell survival rate (killing of cisplatin-resistant cancer cells) [6] | toxicity to human normal cells (cell survival rate) [7] | other results |
| --- | --- | --- | --- | --- | --- | --- | --- | --- |
| O=c1[nH]c(=O)n([C@H]2C[C@H](O)[C@@H](CO)O2)cc1Br [BrdU, bromodeoxyuridine] | no DET reactions detected; also recorded: negligible; also recorded: no DET reaction |  |  |  |  |  |  |  |
| Nc1cc(Cl)c(Cl)cc1N [Compound A, 4,5-dichloro-1,2-phenylenediamine] |  | significant killing | significant killing | significant killing | significant killing | significant killing | essentially no toxicity; also recorded: little toxicity |  |
| Nc1cc(Br)c(Br)cc1N [Compound B, 4,5-dibromo-1,2-phenylenediamine] | highly effective | significant killing | significant killing | significant killing | significant killing | significant killing | essentially no toxicity; also recorded: little toxicity | dissociative lifetime of NPB*− ([1]; ethanol): ~6.0 ps; yield of DNA double-strand breaks (γ-H2AX intensity) [8]: significant amount of DNA DSBs; activation of caspase-3 and -7 ([9]; ME-180, 0-200 μM): significant activation; population of apoptotic cells ([9]; ME-180, 200 μM): ≥ 60%; tumor growth vs control group [10]: significantly suppressed tumor growth; overall toxicity ([11]; 7 mg/kg daily for 5 days, IP): no overall drug toxicity; electrolytes (Na, K, Cl) [11, 12]: no changes in electrolytes; hepatotoxicity (ALT, ALP, total bilirubin) [11, 12]: no hepatotoxicity; nephrotoxicity (blood urea, creatinine) [11, 12]: no nephrotoxicity |
| Nc1cc(I)c(I)cc1N [Compound C, 4,5-diiodo-1,2-phenylenediamine] |  | significant killing |  | significant killing |  | significant killing | essentially no toxicity; also recorded: little toxicity | cell survival rate (killing of cancer cells) ([5]; A549, 72 hr treatment): significant killing |
| O=c1[nH]c(=O)n([C@H]2C[C@H](O)[C@@H](CO)O2)cc1I [IdU, iododeoxyuridine] | no DET reactions detected; also recorded: negligible; also recorded: no DET reaction |  |  |  |  |  |  |  |
| bromo-(1,2-)diamino-benzene [Compound D] |  | significant killing | significant killing | significant killing | significant killing | significant killing | essentially no toxicity; also recorded: little toxicity |  |
| cis-Pt(NH3)2Cl2 [cisplatin, reference compound] |  |  |  |  |  |  |  | IC50 ([7]; read-out: IC50 (cell survival rate 50% with respect to untreated cells), GM05757, 72-hr treatment): ~10 µM |

From patent US11446294B2, “Non-platinum-based anti-cancer compounds for use in targeted chemotherapy” (priority 2013, dated 2022)
